Assay results taken from patent US20170291890A1 (Epizyme, Inc., priority 2014, published 2017).
Read-outs that look alike come from different tables or passages of the source.

Columns and labels:
[1] = Solubility remark in Table 2 (compound insoluble, no IC50 given); type: physicochemical; details: Table 2, cell in place of 4A/4C/5A IC50
[2] = target: T1, KDM5A (Homo sapiens, UniProt P29375); test: KDM5A Assay (SAMDI mass spectrometry demethylase assay); type: biochemical; details: C-terminal FLAG-tagged KDM5A 1-1090; class symbols; read-out: 5A IC50
T1 construct: C-terminal FLAG-tagged KDM5A^1-1090 was purchased from BPS Biosciences; FLAG (C); purchased BPS Biosciences
T1 sequence (P29375 1-1090): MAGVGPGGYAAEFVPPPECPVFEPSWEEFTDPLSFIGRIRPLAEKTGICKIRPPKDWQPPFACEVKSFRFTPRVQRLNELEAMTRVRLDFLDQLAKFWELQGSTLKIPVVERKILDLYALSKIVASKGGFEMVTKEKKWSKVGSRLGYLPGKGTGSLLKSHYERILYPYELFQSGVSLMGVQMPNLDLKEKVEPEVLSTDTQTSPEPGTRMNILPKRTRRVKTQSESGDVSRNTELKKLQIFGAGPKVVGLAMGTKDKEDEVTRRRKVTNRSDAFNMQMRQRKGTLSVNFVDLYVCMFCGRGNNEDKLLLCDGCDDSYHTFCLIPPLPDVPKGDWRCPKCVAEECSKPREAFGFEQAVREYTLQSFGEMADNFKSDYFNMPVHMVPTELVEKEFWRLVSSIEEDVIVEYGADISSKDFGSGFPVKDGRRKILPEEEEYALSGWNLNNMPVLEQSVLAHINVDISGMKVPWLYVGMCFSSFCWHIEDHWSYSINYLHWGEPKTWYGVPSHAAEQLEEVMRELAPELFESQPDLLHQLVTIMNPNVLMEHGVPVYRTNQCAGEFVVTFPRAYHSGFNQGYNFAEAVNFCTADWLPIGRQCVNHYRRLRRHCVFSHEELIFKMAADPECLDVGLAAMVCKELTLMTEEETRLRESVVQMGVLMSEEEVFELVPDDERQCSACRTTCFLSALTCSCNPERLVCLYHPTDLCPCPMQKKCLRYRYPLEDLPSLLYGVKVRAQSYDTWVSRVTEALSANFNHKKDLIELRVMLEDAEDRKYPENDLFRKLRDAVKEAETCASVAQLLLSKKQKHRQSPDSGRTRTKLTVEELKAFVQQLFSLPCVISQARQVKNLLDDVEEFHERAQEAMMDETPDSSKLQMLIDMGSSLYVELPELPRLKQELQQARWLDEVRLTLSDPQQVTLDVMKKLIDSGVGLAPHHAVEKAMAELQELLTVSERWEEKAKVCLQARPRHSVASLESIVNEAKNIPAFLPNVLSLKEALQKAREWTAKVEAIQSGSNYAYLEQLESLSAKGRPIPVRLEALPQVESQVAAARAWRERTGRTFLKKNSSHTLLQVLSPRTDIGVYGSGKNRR
Description: (§1) C-terminal FLAG-tagged KDM5A^1-1090 was purchased from BPS Biosciences. Peptides were synthesized by BioPeptide and all other reagents were purchased from Sigma-Aldrich at the highest level of purity possible. Assays were performed in a 50 μL volume in 384-well V-bottom polypropylene microplates (Greiner) at 25° C. Optimized 1× assay buffer was 50 mM HEPES (pH=8.0), 100 μM sodium ascorbate, 20 mM NaCl, 10 μM ammonium iron sulfate, 1 mM tris(2-carboxyethyl)phosphine (TCEP), 0.002% Tween-20, and 0.005% BSG. For compound screening, 35 μL of KDM5A^1-109° (final concentration, f.c.=20 nM) was added using a Multidrop Combi and preincubated with 1 μL of test compound (f.c.=10 μM) for 30 minutes and subsequently 15 μL of peptide with the following sequence NH2-ART[Kme-3]QTARKSTGGKA[K-Ahx-Biot]-amide (f.c.=250 nM) and 2-oxoglutarate (f.c.=15 μM) was added by Multidrop Combi to begin the reaction. Reactions proceeded for 150 minutes and were stopped by the addition of 5 μL of formic acid (f.c.=0.5%) using a Multidrop Combi and then analyzed by SAMDI Tech Inc.
(§2) SAMDI Tech analyzed all reactions using self-assembled monoloayer desorption/ionization technology as previously described (Gerard-Levin Z A, Scholle M D, Eisenberg A H, et al.: High-throughput screening of small molecule libraries using SAMDI mass spectrometry. ACS Comb Sci 2011; 13:347-350). Briefly, a 2 μL sample of the stopped demethylase reactions were transferred to a SAMDI array coated with 384 biotin-neutravidin spots using a 384-channel pipet station. The SAMDI arrays were incubated for 1 h in a humidified chamber, followed by washing of the surface with deionized ultra-filtered water (DIUF) and drying under nitrogen. A matrix of 30 mg/ml 2′,4′,6′-Trihydroxyacetophenone monohydrate (THAP) in acetone was applied using a TPP Mosquito 1.2 μL tip by dispensing 50 nL on each of the 384 spots on the array. SAMDI-MS was run using acquisition method ReflectorPositiveUTX. The % conversion of substrate to product was calculated using the AUC of the substrate and product peptide peaks.
(§3) An IC50 value was determined by contacting various concentrations of a test compound with one of the KDM4A, KDM4C or KDMSC enzyme constructs and plotting a dose-response curve which associates the amount of inhibition of the enzyme relative to the concentration of the test compound. From the curve, the IC50 value (which represents the concentration of the test compound necessary to inhibit maximal enzymatic activity by 50%) was determined. Additionally, the slope of the linear range of the plotted curve, which indicates the speed with which the curve rises between the minimum and maximum, was calculated.

[3] = target: T2, KDM4C (Homo sapiens, UniProt Q9H3R0); test: KDM4C Assay (SAMDI mass spectrometry demethylase assay); type: biochemical; details: N-terminal GST-tagged KDM4C 2-372, read-out: 4C IC50
T2 construct: N-terminal GST-tagged KDM4C^2-372 was purchased from BPS Biosciences; GST (N); purchased BPS Biosciences
T2 sequence (Q9H3R0 2-372): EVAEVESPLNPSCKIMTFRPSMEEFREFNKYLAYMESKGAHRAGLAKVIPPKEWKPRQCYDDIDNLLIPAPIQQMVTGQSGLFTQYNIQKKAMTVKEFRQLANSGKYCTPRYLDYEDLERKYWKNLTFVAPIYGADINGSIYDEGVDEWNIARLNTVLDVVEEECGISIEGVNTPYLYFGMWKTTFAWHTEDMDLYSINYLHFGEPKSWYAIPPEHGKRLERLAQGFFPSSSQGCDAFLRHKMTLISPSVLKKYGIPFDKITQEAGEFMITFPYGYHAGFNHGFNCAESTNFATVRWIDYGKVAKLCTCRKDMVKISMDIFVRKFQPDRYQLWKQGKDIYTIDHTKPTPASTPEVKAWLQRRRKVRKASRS
Description: as §1, with “N-terminal GST-tagged KDM4C^2-372” for “C-terminal FLAG-tagged KDM5A^1-1090”, “KDM4C^2-372” for “KDM5A^1-109°”, “f.c.=5” for “f.c.=20”, “NH2-ARTKQTAR(Kme3)STGGKAPRKQLA(K-Ahx-Biotin)-amide (f.c.=500” for “NH2-ART[Kme-3]QTARKSTGGKA[K-Ahx-Biot]-amide (f.c.=250”
as §2, §3

Cc1c(Nc2cnccc2C(=O)O)nn(C)c1-c1ccccc1 [Compound 54, 3-((1,4-dimethyl-5-phenyl-1H-pyrazol-3-yl)amino)isonicotinic acid]
Solubility remark given instead of IC50 values [1]: Insoluble

Cn1nc(-c2ccncc2)cc1Nc1cnccc1C(=O)O [Compound 44, 3-((1-methyl-3-(pyridin-4-yl)-1H-pyrazol-5-yl)amino) isonicotinic acid]
Solubility remark given instead of IC50 values [1]: Insoluble

Cc1ccccc1-n1ncc(Nc2cnccc2C(=O)O)c1C [Compound 50, 3-((5-methyl-1-(o-tolyl)-1H-pyrazol-4-yl)amino)isonicotinic acid]
Solubility remark given instead of IC50 values [1]: Insoluble

Cc1nn([C@@H]2CCN(C)C2)cc1Nc1cnccc1C(=O)NCCO [Compound 122, (R)—N-(2-hydroxy-ethyl)-3-((3-methyl-1-(1-methylpyrrolidin-3-yl)-1H-pyrazol-4-yl)amino)isonicotin-amide]
IC50 [2]: 10 to 100 µM
IC50 ([3]; numeric bound): > 100 µM

Cc1nn(C2CCCN(C3CCC3)CC2)cc1Nc1cnccc1C(=O)O (single isomer, unassigned) [Compound 118]
IC50 [2]: 0.1 to 1 µM
IC50 ([3]; class symbols): 1 to 10 µM

CN1CCC(n2ncc(Nc3cnccc3C(=O)O)c2-c2ccccc2)C1 (stereo not drawn) [Compound 124]
IC50 [2]: 1 to 10 µM
IC50 ([3]; class symbols): 1 to 10 µM
